SMILES	melting point
CC(CC#N)n1nnc2cc3c(=O)n(C4CC4)nnc3cc2c1=O (centres undefined)	240 to 242 °C
NC(=O)N(O)CC=Cc1ccoc1	136 to 137 °C
COc1ccc(SC2CC(=O)N2)cc1OC (centres undefined)	145 to 146 °C
CC1CCN(c2cc3nc(C(C)(C)C)sc3cc2NC(=S)Oc2ccccc2)CC1	201 to 205 °C
O=C(NCC1CCCC1)c1ccc2cc[nH]c2c1	148 to 150 °C
O=C(O)Cc1ccc2c(c1)sc1ccc(Cl)cc12	220 to 221 °C
CC(C)(C)NC(=O)[C@@H]1C[C@H](Br)CN1C(=O)[C@@H](O)[C@H](Cc1ccccc1)NC(=O)[C@H](CC(N)=O)NC(=O)OCc1ccccc1	100 to 105 °C
COc1cccc(-c2nc3c([nH]2)C(C)(C)CS(=O)(=O)CC3(C)C)c1	217 to 219 °C
CC1(C)OC(=O)Nc2c(F)cc(-c3csc(C#N)c3)cc21	250 to 251 °C
CC(C)(C)c1cc(/C=C/C(=O)O)n(Cc2ccc(C(F)(F)F)cc2Cl)n1	175 to 176 °C
CCn1ncc(OCc2ccc(C(=O)c3ccc(Cl)cc3)s2)c(Cl)c1=O	168 °C
O=S(=O)(c1ccc(Nc2nccc(Nc3ccc(F)cc3)n2)cc1)N1CCC(C(O)c2ccncc2F)CC1 (centres undefined)	140 °C
O=C1CCN(C(=O)OCc2ccc([N+](=O)[O-])cc2)CC1	123 to 124 °C
CC(=O)N1CCN(c2ccc(Nc3nc(N)c(C(=O)c4sccc4C)s3)cc2)CC1	290 to 292 °C
CNC(=O)CC1CSc2c(C(=O)OC(C)C)c(C)cn21 (centres undefined)	108 to 109 °C
CN(C(=O)CCCOc1ccc2nc3n(c(=O)c2c1)CC(=O)N3)C1CCCCC1	200 to 202 °C
CC1(C)CCC(C(=O)COS(=O)(=O)c2ccccc2)CC1	34.5 to 35 °C
Cc1cc([N+](=O)[O-])ccc1N1CCN(C(=O)OC(C)(C)C)CC1	122 to 123 °C
COc1ccc(C2=NN(C(C)C)C(=O)[C@H]3CCCC[C@@H]23)cc1OC (relative stereo)	79 to 81 °C
COc1ccc(CCNC(=O)C(=O)NCCCCCCNC(=O)OC(C)(C)C)cc1OC1CCCC1	135 to 137 °C

SMILES	melting point
CN1C(=O)CN=C(c2ccccc2)c2cc(CN)ccc21	201 °C
COC(=O)c1ccc(C2CCC(=O)CC2)cc1	91 to 92 °C
CN(C(=O)Nc1ccc(OC(F)(F)F)cc1)c1nc(OCC(F)(F)F)cc(OCC(F)(F)F)n1	123 to 125 °C
CC1(c2ccc(N)cc2F)CNC1=O (centres undefined)	125 to 127 °C
Nc1ccc2c3c(cccc13)C(=O)N2	240 to 242 °C
CN(C)S(=O)(=O)Oc1c(I)cc(C(C)(C)C)cc1CN	94 to 95 °C
CN(C)S(=O)(=O)c1cc2c(c(C(=O)O)c1)OCCO2	220 to 221 °C
c1cc2c(cc(-c3nnn[nH]3)c3nnnn32)s1	267 to 269 °C
CC(C(=O)OC1(C)CCCCC1)c1ccc(N)cc1 (centres undefined)	85 to 87 °C
CCOC(=O)C(=CNc1sc(-c2ccc(OC)cc2)c(C)c1C(=O)O)C(=O)OCC	184 to 187 °C
Cc1cn(C2OC(COC(=O)c3ccccc3)C(OC(=O)c3ccccc3)C2OC(=O)c2ccccc2)c(=O)[nH]c1=O (centres undefined)	90 °C
Cn1c(=O)sc2ccc(Cl)cc21	106 to 108 °C
C=CCNc1ncnc2c1ncn2Cc1c(F)cccc1Cl	163 to 164 °C
CCCOc1ccc(/C=C/c2cc(OC)c(OC)c(OC)c2)cc1	82 to 83 °C
Cc1ccccc1COC(C)(CO)CO	90 to 91 °C
CCCCCCOc1ccc(C(=O)NCCC(C)(C)C)cn1	75 to 76.5 °C
CN1C(=O)CN(c2cccc(Br)c2)NC1=O	165 to 166 °C
COc1ccc(N2CCN(c3c(C)c(C)c4c(c3C)C(O)(c3cccs3)C(C)(C)O4)CC2)cc1 (centres undefined)	154 to 155 °C
CCCc1c(OCCCc2ccc(O)c(O)c2)ccc(C(=O)O)c1O	194 to 195 °C
COC(=O)c1ccc(CO)nc1C1=NC(C)(C(C)C)C(=O)N1 (centres undefined)	115 to 118 °C

SMILES	melting point
CC(C)CN1CCC(CNc2ccc(Cl)cc2C(=O)Nc2ccc(Cl)cn2)CC1	121 to 122 °C
CC(=O)c1cnc(Cl)c(Cl)c1	80 °C
CC(C)(C)Nc1cc(Cl)nc(N2CCCC2)n1	148 to 150 °C
O=C(NCCCOc1cc(CN2CCCCC2)ccn1)c1cn[nH]c1	117 to 119 °C
Cc1c(F)c(F)c(CNc2ccc(O)c(C(=O)O)c2)c(F)c1F	212 °C
CC(C)NC1=NS(=O)(=O)c2cc(Cl)cc([N+](=O)[O-])c2N1	266 to 267 °C
O=C1C2CC2C(=O)N1CCC1=CCCCC1 (centres undefined)	60 to 61 °C
COc1ccc([N+](=O)[O-])c(Oc2cc(C)[nH]n2)n1	133 to 136 °C
COc1cccc(C(F)(F)F)c1NS(=O)(=O)c1nc2nc(O)cc(O)n2n1	237 to 243 °C
CCn1c(=O)n(C2CCN(CCCCN3C(=O)c4ccccc4S3(=O)=O)CC2)c2ccccc21	124 to 125 °C
CC1CCN(Cc2ccccc2)C1=Nc1ccccc1N1CCOCC1 (centres undefined)	96 to 97 °C
O=C1CN=C(c2ccccc2)c2cc(NO)ccc2N1	186 to 187 °C
O=S1(=O)N=CN(C2CC2)c2cccc(F)c21	156 to 157 °C
N#Cc1ccc(N2C(=O)C=C(O)C2Cc2ccccc2)cc1Cl (centres undefined)	188 to 189 °C
CN1Cc2ccccc2P1(=O)c1ccccc1 (centres undefined)	129 to 130 °C
CN(C)C=Cc1cc(Cl)c(Cl)cc1[N+](=O)[O-]	171 to 174 °C
O=C(O)c1ccc(Cl)c(S)c1	209 to 211 °C
CCOc1ccc(-n2cccc2-c2ccc(S(N)(=O)=O)cc2)cc1	126 to 128 °C

More lines, now with the values ahead:

melting point	SMILES
157 to 158 °C	CN(C)CCNC(=O)c1nnc(-c2ccccc2)cc1-c1cccc([N+](=O)[O-])c1
147 to 148 °C	CCC(C)(C)c1ccc2nc(-c3ccc([N+](=O)[O-])cc3)oc2c1
225 to 227 °C	NC(=O)C[C@H](NC(=O)OCc1ccccc1)C(=O)N[C@@H](Cc1ccccc1)[C@H](O)C(=O)O
107 to 108 °C	O=C1C=C(Oc2ccc(Oc3ccccc3)cc2)C(O)O1 (centres undefined)
108 to 110 °C	COC(=O)C(Cl)=Cc1cc([N+](=O)[O-])ccc1Cl
178 to 180 °C	COc1ccc(P(=O)(c2ccccc2)c2ccccc2)c(I)c1OC
150 to 151 °C	CCN(C(=O)C1CC1)c1cccc(-c2ccnc3c(Cl)cnn23)c1
165 to 166 °C	N#CCCNC(=O)c1cccc(-c2cccc3nn(Cc4ccc(F)c(Cl)c4)cc23)c1
222 to 223 °C	CCC(=O)Nc1ccc2nc(C(=O)NCc3cccc(OC)c3)[nH]c(=O)c2c1
235 °C	CC(=O)Nc1ccc(OCC(=O)O)c(C(=O)NCc2ccc(Br)cc2F)c1
200 to 202 °C	O=C(NCc1ccc2cc(O)ccc2c1)c1cc2ccccc2o1
> 300 °C	Nc1ccc(-c2cc3c(N4CCc5ccccc54)ncnc3[nH]2)cc1
94 to 95 °C	CCOC(=O)C(C(=O)OCC)c1c(Br)cnc2c([N+](=O)[O-])cccc12
130 to 132 °C	CCOC(=O)C(C#N)C1(C#N)C(=O)N(Cc2ccc(Br)cc2F)c2c(C)cccc21 (centres undefined)
218 °C	Cc1cc2c(-c3ccccc3)c(NC(=O)NCc3ccccc3N)n(C)c(=O)c2cc1C
90 to 92 °C	CCOC(=O)CCNc1ncccc1NC(=O)c1ccccc1Cl
211 to 213 °C	CCC(CC)CNC(=O)c1ccc(CN2C(=O)C3(COc4cc5c(cc43)CCO5)c3ccccc32)cc1 (centres undefined)
183 to 184 °C	CCOC(=O)c1sc(N)nc1-c1cccc(C)c1
223 to 224 °C	CC(=O)c1cc(C(C)=O)cc(N(C(C)=O)C(=O)Nc2ccccc2)c1
112 to 113 °C	O=Cc1ccc(C=Cc2ccccc2)cc1
105 to 109 °C	O=C1COCC(c2ccccc2)N1C(=O)Oc1ccc([N+](=O)[O-])cc1 (centres undefined)

melting point	SMILES
78 to 80 °C	CCOC(=O)/C=C/c1cccc(C2CCCC2)c1OCCc1ccccc1
83 to 85 °C	Cc1ccc(-n2nc(C(N)=O)nc2-c2ccccc2)cc1COCCC(C)C
237 to 239 °C	Cc1nc2c(N)nc3ccccc3c2n1OCCOc1ccccc1
120 to 122 °C	CCOC(=O)N1C(=S)NC(C)=C(C(=O)OC(C)C)C1c1cccc([N+](=O)[O-])c1 (single isomer, unassigned; (-))
186 to 187 °C	O=C(O)c1cc(OCCCOc2ccc(-c3ccccc3)cc2)cc(OCCCOc2ccc(-c3ccccc3)cc2)c1
84 to 86 °C	CC(=O)Nc1ccc(C(=O)Oc2ccccc2)c(Cl)c1
102 to 105 °C	CCOC(=O)C1=C(C)NC(c2ccccc2)=NC1c1ccccc1[N+](=O)[O-] (centres undefined)
269 to 272 °C	O=S1(=O)c2ccccc2Nc2ccc(-c3ccccc3)cc21
255 to 257 °C	CC1(C)Oc2ccc(C#N)cc2[C@@H](n2c(=O)[nH]c3ccccc32)[C@@H]1O (relative stereo)
101 to 102 °C	CCOC(=O)CC1CN=C(c2cc3cccc(N(C)S(=O)(=O)c4cccs4)c3[nH]2)S1 (centres undefined)
164 °C	O=S(=O)(c1ccccc1)c1cnc2c(N3CCNCC3)cccc2c1
205 to 206 °C	CC(=O)N1CCN(c2ccc(Nc3nccc(-c4sc(N(C)c5cccnc5)nc4C)n3)cc2)CC1
94 to 95 °C	O=C(NCCO)c1cccc(-c2cccc3nc(Cc4cccc(C(F)(F)F)c4)sc23)c1
155 to 157 °C	COc1ccc(S(=O)(=O)Oc2ccn3nc(-c4ccccc4)c(-c4ccc(=O)n(C(C)C)n4)c3c2)cc1
140 to 141 °C	CC(C)CN(CCc1c[nH]c2ccccc12)C(=O)CCCC(=O)O
188 to 190 °C	Cc1ccccc1NC(=O)Nc1ccc(C(=O)N2Cc3ccccc3Cc3ccccc32)cc1
160 to 162 °C	Brc1ccccc1-c1nnnn1C(c1ccccc1)(c1ccccc1)c1ccccc1
214 to 215 °C	O=C1CC=C(c2ccccc2F)c2cc(Cl)ccc2N1
212 °C	O=C(O)CON=c1c2nccc3cccc(c32)n2cccc12
72 to 74 °C	COc1ccc(-c2cccc(-c3nc(C(C)C)[nH]c3-c3cccc(C)n3)c2)cn1
